1 compound from patent publication US20210267978A1, “NANOPARTICLE FORMULATIONS OF IKE AND METHODS OF USE THEREOF” (The Trustees of Columbia University in the City of New York, priority 2018, published 2021) can be followed below.

SMILES strings stand for the structures. Where two headings read alike, the source gives them in different places.

The subject of one series is SUDHL6 cells. Briefly: C-11 BODIPY lipid peroxidation measurement (flow cytometry). The class given is cell-based. Particulars: different concentrations of IKE. The protocol: 0.20 million SUDHL-6 cells were seeded in sixc^− well plates and treated with DMSO, IKE, or Fer-1 at specific concentration. The final cell density of 0.05 million cells/mL. After 24 h, cells were harvested by centrifuging at 300×g for 5 min. Cells were resuspended in 500 μL HBSS containing 2 μM C11-BODIPY (BODIPY 581/591 C11) (Thermo Fisher Scientific, D3861) and incubated at 37° C. for 15 min. Cells were pelleted and resuspended in HBSS. Fluorescence intensity was measured on the FL1 channel with gating to record live cells only (gate constructed from DMSO treatment group). A minimum of 10,000 cells were analyzed per condition.

The nature of series [1]: Pharmacokinetic analysis in mice with three administration routes (plasma, LC-MS). Type of series: in vivo. The following applies: NOD/SCID mice; for AUC(0-t) / Cmax / Tmax / half-life / concentration at 8 h: mouse; for concentration at 8 h: read-out: Clast. The protocol: NOD/SCID mice 12-weeks of age and ˜28 g weight were weighed before injection and divided into groups of 3 mice per cage. IKE was dissolved in 5% DMSO/95% Hank's Balanced Salt Solution (HBSS) (Thermo Fisher Scientific, 14025076), pH 4, to create a 5 mg/mL solution. 5% DMSO/95% HBSS at pH 4 solution (Vehicle 1) without IKE was used as vehicle. The solution was sterilized using a 0.22 μm Steriflip filter unit (Thomas Scientific 1189Q46). Mice were dosed using three different routes, IP and PO with 50 mg/kg IKE, and IV with 17 mg/kg IKE. Samples were collected at 0, 1, 3, 4, and 8 h from three mice per time point. Additionally, three mice per group were used as control by administration with equivalent amount of vehicle 1 by IP, PO, and IV, and samples were collected at 8 h. At the appropriate time, mice were sacrificed by CO2 asphyxiation for 3 min and ˜0.5 mL of blood was collected via cardiac puncture. Blood was immediately put into K3 EDTA micro tube (SARSTEDT 41.1504.105) and placed on ice. Samples were centrifuged for 10 min at 2,100×g at 4° C., plasma was then transferred to a clean tube. Plasma samples were flash frozen in liquid nitrogen and stored at −80° C. IKE was extracted from plasma by adding 900 μL acetonitrile to 100 μL plasma. Samples were mixed for at least 5 min by rotating at room temperature and were sonicated prior to […] for 10 min at 4,000×g and 4° C. The supernatant was removed and dried on a GeneVac evaporator overnight on an HPLC setting. After drying, the samples were resuspended in 100 μL of methanol and analyzed on the liquid chromatography mass spectrometry (LC-MS), with each sample analyzed twice. Quality control standard samples were prepared by dissolving IKE in 100 μL water and extraction with the same procedures to ensure that the extraction was efficient. LC-MS analysis was performed on a platform comprising a Thermo Scientific Dionex Ultimate 3000RS controlled by Chromeleon (Dionex) and a Bruker amazon SL ESI ion-trap mass spectrometer.
Chromatographic separation was performed at 20° C. on Agient Eclipse Plus C18 column (2.1×50 mm, 3.5 μm) at 20° C. over a 12 minute gradient elution. Mobile phase A consisted of water with 0.1% acetic acid v/v and mobile phase B was methanol with 0.1% acetic acid v/v. After injection, the gradient was held at 80% mobile phase A for 1 min. The gradient was then ramped in a linear fashion to 80% mobile phase over 0.5 min. Over the next 3.5 min, the gradient was ramped in linear fashion to 100% mobile phase B and held at 100% mobile phase B for 3.25 min. The gradient was then ramped in a linear fashion to 80% mobile phase over 0.5 min and held there for the duration of the run. The flow rate was set to 400 μL/min and injection volumes were 5 μL. The retention time for IKE in this gradient was 2.8 min.
Mass spectrometry analysis was performed on a Bruker Amazon SL (Billerca, MA) in positive ESI mode. Trap Control was used to control the ESI settings with the inlet capillary held at −4500 V and the end plate offset at −500 V. Nitrogen was used as the desolvation gas. Hystar v 3.2 was used to integrate the UHPLC and MS applications, and data analysis was performed with the Compass DataAnalysis software. The base peak chromatogram at m/z 655.2 with a width of ±0.1 was integrated and peak area quantified by standard curve.
Pharmacokinetics (PK) of IKE was assessed using Prism fitted with lognormal of one phase exponential decay.

Regarding `CC(C)Oc1ccc(C(=O)Cn2ccnc2)cc1-n1c(CN2CCN(C(=O)COc3ccc(Cl)cc3)CC2)nc2ccccc2c1=O` [IKE, Imidazole ketone erastin], in the series with SUDHL6 cells, the “lipid ROS (C11-BODIPY)” value was “dose-dependent increase in lipid ROS”. Moreover, in series [1] (IP, 50 mg/kg IKE), the Tlast was found to be 8 h, the exposure AUC(0-t) is 53900 ng·h/mL, the highest level (Cmax) was 19500 ng/mL and the time of peak concentration (Tmax) is 18.6 min. In series [1] (IP, 50 mg/kg IKE), the half-life was 109 min and the concentration at 8 h was 1530 ng/mL. Also, in series [1] (IV, 17 mg/kg IKE), the Tlast is on record as 8 h, the AUC(0-t) amounted to 17000 ng·h/mL, the highest level (Cmax) was 11400 ng/mL and the Tmax was 0 min. Besides, in series [1] (IV, 17 mg/kg IKE), the half-life was 78.6 min and the concentration at 8 h came out at 16 ng/mL. For the same compound, in series [1] (PO, 50 mg/kg IKE), the Tlast came out at 8 h, the AUC(0-t) worked out at 5720 ng·h/mL, the highest level (Cmax) was 5200 ng/mL and the Tmax was 43.2 min. In series [1] (PO, 50 mg/kg IKE), the half-life was 57.6 min and the concentration at 8 h was determined as 48 ng/mL.

For orientation: AUC(0-t) means the area under the concentration-time curve up to a stated or last time point. As usually defined, the Cmax is the highest concentration seen after dosing. As a reminder, the Tmax is the time at which the peak concentration occurs. A word on the half-life: it is the time needed for the level to fall by half in the phase considered. A high value points to slow loss.
